Inconclusive results and toxic doses are left out. Cut-off read from the data, not from the text of the source: active = T/C of 150% or more; inactive = T/C below 125%.
Tested on: L1210 leukemia ip in BDF1 mice, survival T/C
Assay: NCI In Vivo Anticancer Drug Screen. Data for tumor model L1210 Leukemia (intraperitoneal) in B6D2F1 (BDF1) mice
Details: endpoint: mean survival time, higher = longer survival
Method in brief: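 In this screen, tumor-bearing mice given compound are compared to those given vehicle, and their survival values are reported as a treated-to-control quotient.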

[1] = dose: 100.0 mg/kg/injection, schedule: Q01DX009 (ip), vehicle: Klucel (hydroxypropylcellulose) (HPC)
[2] = dose: 200.0 mg/kg/injection, schedule: Q01DX009 (ip), vehicle: Klucel (hydroxypropylcellulose) (HPC)
[3] = dose: 400.0 mg/kg/injection, schedule: Q01DX009 (ip), vehicle: Klucel (hydroxypropylcellulose) (HPC)

Measured: T/C

O=C(C[n+]1cccc(C(=O)Nc2ccccc2)c1)Nc1ccccc1
inactive: dose: 100.0 mg/kg/injection, schedule: Q04DX003 (ip), vehicle: saline 95 % of control

C=CC[Si](Cl)(Cl)Cl
inactive: dose: 50.0 mg/kg/injection, schedule: Q01DX001 (ip), vehicle: saline 93 % of control | dose: 100.0 mg/kg/injection, schedule: Q01DX001 (ip), vehicle: saline 98 % of control

O=C(c1ccccc1)C1C(c2ccccc2)N1C(=O)c1ccccc1 (stereo not given)
inactive: [1] 94 % of control | dose: 100.0 mg/kg/injection, schedule: Q04DX003 (ip), vehicle: Klucel (hydroxypropylcellulose) (HPC) 102 % of control | [2] 101 % of control | dose: 200.0 mg/kg/injection, schedule: Q04DX003 (ip), vehicle: Klucel (hydroxypropylcellulose) (HPC) 90 % of control | [3] 89 % of control | dose: 400.0 mg/kg/injection, schedule: Q04DX003 (ip), vehicle: Klucel (hydroxypropylcellulose) (HPC) 90 % of control

CC(C)C(O)c1cnc(OCc2ccccc2)nc1OCc1ccccc1 (stereo not given)
inactive: [1] 96 % of control | dose: 100.0 mg/kg/injection, schedule: Q04DX003 (ip), vehicle: other 98 % of control | [2] 101 % of control | dose: 200.0 mg/kg/injection, schedule: Q04DX003 (ip), vehicle: other 103 % of control | [3] 101 % of control | dose: 400.0 mg/kg/injection, schedule: Q04DX003 (ip), vehicle: other 103 % of control

Reference: PubChem BioAssay AID248 (DTP/NCI, 2004)
